Like-named read-outs stand apart in the source and are kept apart here.
Experiments:
Assay type in all cases: in vitro ADME
recombinant human CYP3A4 = molecular target: T1, recombinant human CYP3A4 (Homo sapiens, UniProt P08684); assay: Luminogenic P450-Glo enzyme inhibition assay, CYP3A4
T1 construct: purchased Promega (P450-Glo Screening system); host or cells: baculovirus expression system
Protocol: (§1) The assay was carried out using P450-Glo Screening system from Promega (Promega Inc., Madison Wis., USA). It contains recombinant human CYP1A2, CYP2C9, CYP2C19, CYP2D6, and CYP3A4 enzymes in the membranes produced by a baculovirus expression system, specific luminogenic cytochrome enzyme substrates (luciferin 6-methyl ether, luciferin 6-benzyl ether, 6-deoxyluciferin, ethylene glycol ester of 6-deoxyluciferin, and ethylene glycol ester of luciferin 6-methyl ether), negative control membranes, a nicotinamide adenine dinucleotide phosphate hydrogen (NADPH) regeneration system containing NADP+, glucose-6-phosphate, magnesium chloride (MgCl2) and glucose-6-phosphate dehydrogenase (functioning to initiate and sustain the CYP450 reaction by maintaining a non-limiting NADPH system), reaction buffer, luciferin detection reagent, and Luciferin-Free Water. The negative control membranes were devoid of CYP activity. The luminogenic inhibition assays were performed following the protocols from Promega Corp. (Technical Bulletin, P450-Glo Assays, Promega Corp., 2009) and previous studies. […] The 12.5 μL of the luciferin-free water was added individually in both the “untreated” wells representing the values of total CYP activity and the “minus-P450 control” wells representing the values of the CYP-independent background luminescence. Secondly, 12.5 μL of the 4× reaction mixture (containing human CYP membrane preparations, the appropriate luminogenic substrate, and potassium phosphate buffer) was added to the “treated” and the “untreated” wells. The 12.5 μL of the 4× control reaction mixture (containing membrane preparations devoid of CYP enzymes, the appropriate luminogenic substrate, and potassium phosphate buffer) was added to the “minus-P450 control” wells. The plate was preincubated at room temperature (25°C) for 10 min, and then 25 μL of the 2× NADPH regeneration system was added to initiate the reaction. […] The luminescence in all of the samples was measured using a microplate reader as relative light units (RLU) after 20 min incubation to stabilize the luminescent signal. The assay experiments were repeated three independent times. The amount of light produced is directly proportional to the CYP enzyme activity. The net signals from untreated CYP reactions represent total CYP activity (100%). The modulation of the CYP activity by the test compound was determined by comparing the changes from the average net signal of untreated CYP reactions with the changes observed from the test compound. […] USA).

recombinant human CYP2C9 = molecular target: T2, recombinant human CYP2C9 (Homo sapiens, UniProt P11712); assay: Luminogenic P450-Glo enzyme inhibition assay, CYP2C9
T2 construct: purchased Promega (P450-Glo Screening system); host or cells: baculovirus expression system
T2 sequence (P11712 whole entry): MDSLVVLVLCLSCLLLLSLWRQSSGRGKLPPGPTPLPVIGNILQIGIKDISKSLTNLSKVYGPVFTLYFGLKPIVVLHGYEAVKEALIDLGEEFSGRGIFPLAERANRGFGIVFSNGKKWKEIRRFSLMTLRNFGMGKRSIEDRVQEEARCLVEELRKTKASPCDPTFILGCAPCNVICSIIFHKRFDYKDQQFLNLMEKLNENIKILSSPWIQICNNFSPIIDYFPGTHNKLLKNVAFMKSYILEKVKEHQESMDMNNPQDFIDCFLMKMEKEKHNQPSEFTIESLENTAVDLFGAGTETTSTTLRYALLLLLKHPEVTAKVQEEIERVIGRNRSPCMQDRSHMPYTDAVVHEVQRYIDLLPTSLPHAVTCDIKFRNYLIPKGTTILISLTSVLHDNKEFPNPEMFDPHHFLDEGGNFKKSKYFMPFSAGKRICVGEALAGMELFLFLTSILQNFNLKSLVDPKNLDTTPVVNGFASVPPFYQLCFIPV
Protocol: as §1

recombinant human CYP1A2 = molecular target: T3, recombinant human CYP1A2 (Homo sapiens, UniProt P05177); assay: Luminogenic P450-Glo enzyme inhibition assay, CYP1A2
T3 construct: purchased Promega (P450-Glo Screening system); host or cells: baculovirus expression system
T3 sequence (P05177 1-516): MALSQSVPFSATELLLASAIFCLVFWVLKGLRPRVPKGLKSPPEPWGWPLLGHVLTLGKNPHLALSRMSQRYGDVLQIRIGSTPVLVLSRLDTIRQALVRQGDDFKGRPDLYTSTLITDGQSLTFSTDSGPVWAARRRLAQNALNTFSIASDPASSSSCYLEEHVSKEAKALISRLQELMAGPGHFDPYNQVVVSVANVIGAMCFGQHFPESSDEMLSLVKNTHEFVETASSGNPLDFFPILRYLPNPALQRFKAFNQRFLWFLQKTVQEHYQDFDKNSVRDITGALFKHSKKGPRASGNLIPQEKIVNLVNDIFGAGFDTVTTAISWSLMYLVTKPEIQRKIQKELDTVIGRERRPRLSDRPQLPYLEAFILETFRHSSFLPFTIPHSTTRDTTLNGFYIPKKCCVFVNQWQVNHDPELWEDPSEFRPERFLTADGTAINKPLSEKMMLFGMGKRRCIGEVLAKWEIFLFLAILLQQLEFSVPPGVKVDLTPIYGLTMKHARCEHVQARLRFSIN
Protocol: as §1

[1] = molecular target: T4, recombinant human CYP2C19 (Homo sapiens, UniProt P33261); assay: Luminogenic P450-Glo enzyme inhibition assay, CYP2C19
T4 construct: purchased Promega (P450-Glo Screening system); host or cells: baculovirus expression system
T4 sequence (P33261 whole entry): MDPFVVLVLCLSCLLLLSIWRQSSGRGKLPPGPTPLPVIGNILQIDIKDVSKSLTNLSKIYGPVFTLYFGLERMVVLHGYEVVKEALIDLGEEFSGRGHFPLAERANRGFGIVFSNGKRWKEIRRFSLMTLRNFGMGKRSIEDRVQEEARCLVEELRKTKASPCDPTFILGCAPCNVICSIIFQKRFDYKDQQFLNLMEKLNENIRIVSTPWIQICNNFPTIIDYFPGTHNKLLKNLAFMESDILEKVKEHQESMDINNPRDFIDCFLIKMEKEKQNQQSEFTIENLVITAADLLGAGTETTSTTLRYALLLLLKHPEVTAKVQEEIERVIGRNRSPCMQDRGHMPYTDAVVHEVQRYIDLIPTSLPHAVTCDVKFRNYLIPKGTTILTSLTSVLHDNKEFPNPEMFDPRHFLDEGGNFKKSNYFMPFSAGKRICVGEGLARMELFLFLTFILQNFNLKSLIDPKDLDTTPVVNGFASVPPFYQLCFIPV
Protocol: as §1

CYP2D6 = molecular target: T5, CYP2D6 (Homo sapiens, UniProt P10635); assay: Luminogenic P450-Glo enzyme inhibition assay, CYP2D6
T5 construct: purchased Promega (P450-Glo Screening system); host or cells: baculovirus expression system
T5 sequence (P10635 whole entry): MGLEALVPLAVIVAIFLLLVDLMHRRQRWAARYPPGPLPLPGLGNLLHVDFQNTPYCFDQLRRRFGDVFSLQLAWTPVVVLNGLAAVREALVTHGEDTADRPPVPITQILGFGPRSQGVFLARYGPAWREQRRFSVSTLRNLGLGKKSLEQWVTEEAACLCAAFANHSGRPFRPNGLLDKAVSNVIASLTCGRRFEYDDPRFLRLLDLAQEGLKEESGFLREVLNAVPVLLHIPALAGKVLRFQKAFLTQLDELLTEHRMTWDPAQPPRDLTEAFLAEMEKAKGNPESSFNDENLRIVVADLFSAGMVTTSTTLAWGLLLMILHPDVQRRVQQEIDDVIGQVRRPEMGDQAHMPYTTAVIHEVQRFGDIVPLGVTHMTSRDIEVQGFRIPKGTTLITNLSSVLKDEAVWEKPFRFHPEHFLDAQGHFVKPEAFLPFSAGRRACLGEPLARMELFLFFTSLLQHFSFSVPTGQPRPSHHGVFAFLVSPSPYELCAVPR
Protocol: as §1

[2] = classified by IC50 value, read-out: inhibitory potency class on CYP3A4
[3] = recombinant human enzyme, luminescent assay, 30 min incubation, read-out: IC50 CYP3A4 (converted)
[4] = classified by IC50 value, read-out: inhibitory potency class on CYP2C9
[5] = recombinant human enzyme, luminescent assay, 30 min incubation, read-out: IC50 CYP2C9 (converted)
[6] = classified by IC50 value, read-out: inhibitory potency class on CYP1A2
[7] = recombinant human enzyme, luminescent assay, 30 min incubation, read-out: IC50 CYP1A2 (converted)
[8] = classified by IC50 value, read-out: inhibitory potency class on CYP2C19
[9] = recombinant human enzyme, luminescent assay, 30 min incubation, read-out: IC50 CYP2C19 (converted)
[10] = classified by IC50 value, read-out: inhibitory potency class on CYP2D6
[11] = recombinant human enzyme, luminescent assay, 45 min incubation, read-out: IC50 CYP2D6 (converted)

T1 sequence (P08684 whole entry): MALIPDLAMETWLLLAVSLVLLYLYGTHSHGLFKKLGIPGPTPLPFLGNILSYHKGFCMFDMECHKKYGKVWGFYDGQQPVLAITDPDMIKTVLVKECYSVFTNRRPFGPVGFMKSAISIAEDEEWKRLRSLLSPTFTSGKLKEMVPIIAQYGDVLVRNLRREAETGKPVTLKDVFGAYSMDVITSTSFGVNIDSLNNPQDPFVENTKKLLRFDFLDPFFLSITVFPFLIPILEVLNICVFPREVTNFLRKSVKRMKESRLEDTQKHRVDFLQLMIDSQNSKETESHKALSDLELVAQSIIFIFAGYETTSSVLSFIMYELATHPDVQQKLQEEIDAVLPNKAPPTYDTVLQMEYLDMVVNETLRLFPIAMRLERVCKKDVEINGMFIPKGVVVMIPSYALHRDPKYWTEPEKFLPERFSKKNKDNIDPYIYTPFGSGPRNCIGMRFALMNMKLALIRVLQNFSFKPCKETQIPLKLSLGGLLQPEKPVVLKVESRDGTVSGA

| IC50 (recombinant human CYP3A4; [2]) [µM] | IC50 (recombinant human CYP3A4; [3]) [µM] | IC50 (recombinant human CYP2C9; [4]) [µM] | IC50 (recombinant human CYP2C9; [5]) [µM] | IC50 (recombinant human CYP1A2; [6]) [µM] | IC50 (recombinant human CYP1A2; [7]) [µM] | IC50 [1, 8] [µM] | IC50 [1, 9] [µM] | IC50 (CYP2D6; [10]) [µM] | IC50 (CYP2D6; [11]) [µM] | IC50 at 45 min (CYP2D6; human, classified by IC50 value, read-out: inhibitory potency class on CYP2D6) [µg/mL] | SMILES |
| --- | --- | --- | --- | --- | --- | --- | --- | --- | --- | --- | --- |
| > 347 | 1610 | > 347 | 1870 | > 347 | 17100 | 69.4 to 347 | 223 | > 347 | 18500 |  | O=C1c2ccc(O)cc2OC(c2ccc(O)c(O)c2)C1O (stereo not drawn) [Fustin, 2-(3,4-dihydroxyphenyl)-3,7-dihydroxy-2,3-dihydrochromen-4-one] |
| > 349 | 1080 | < 69.9 | 18.9 | < 69.9 | 1.61 | < 69.9 | < 0.00349 | 69.9 to 349 | 163 | > 100 | O=c1c(O)c(-c2ccc(O)c(O)c2)oc2cc(O)ccc12 [Fisetin, 2-(3,4-dihydroxyphenyl)-3,7-dihydroxychromen-4-one] |
